This note sets out measurements from patent US20260001849A1, “NOVEL B0AT1 INHIBITOR” (MITSUBISHI TANABE PHARMA CORPORATION, priority 2023, published 2026).

The term IC50 denotes the point on the concentration scale where inhibition reaches its midpoint.

The first assay has as its target T1, Human BOAT1 (Homo sapiens, UniProt Q695T7).
T1 construct: expressed in transfected cells
T1 sequence (Q695T7 1-634): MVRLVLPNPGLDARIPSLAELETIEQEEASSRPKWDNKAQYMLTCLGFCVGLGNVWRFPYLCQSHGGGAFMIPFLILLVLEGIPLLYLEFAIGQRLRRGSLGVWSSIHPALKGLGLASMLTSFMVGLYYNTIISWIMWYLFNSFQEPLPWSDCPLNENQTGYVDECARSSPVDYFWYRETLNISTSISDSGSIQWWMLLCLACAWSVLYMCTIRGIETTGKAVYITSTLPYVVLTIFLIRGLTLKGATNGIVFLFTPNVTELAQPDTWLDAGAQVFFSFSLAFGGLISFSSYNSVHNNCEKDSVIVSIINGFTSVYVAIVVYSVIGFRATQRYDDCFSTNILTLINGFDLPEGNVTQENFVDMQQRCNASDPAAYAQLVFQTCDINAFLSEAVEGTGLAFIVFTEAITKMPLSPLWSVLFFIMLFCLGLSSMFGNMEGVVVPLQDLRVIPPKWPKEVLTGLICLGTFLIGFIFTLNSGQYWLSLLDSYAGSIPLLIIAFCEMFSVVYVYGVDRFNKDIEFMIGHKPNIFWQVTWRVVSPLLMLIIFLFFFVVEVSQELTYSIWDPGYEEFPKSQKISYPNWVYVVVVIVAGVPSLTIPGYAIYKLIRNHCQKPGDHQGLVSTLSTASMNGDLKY
Briefly: hBOAT1 inhibitory test (phenylalanine uptake). Type of assay: cell-based. The settings on record: Human BOAT1 stable expression CHO cells; [3H]-L-phenylalanine uptake, phenylalanine 0.25 mM; radioactivity after 100 to 200 min; read-out: hB0AT1 IC50. Here is the method: A test compound dissolved in dimethyl sulfoxide (DMSO) was added to a 96 well plate for solid phase radioactivity measurement containing a scintillator at the bottom of the well (final concentration of DMSO 0.5%). DMSO alone as a control and DMSO containing N-(4-bromophenyl)-3,5-dichloro-2-hydroxybenzamide (final concentration […]) for the measurement of BOAT1 non-specific uptake were similarly added at 0.5 μL per well. Human BOAT1 stable expression CHO cells suspended in a buffer (buffer containing 96 mM sodium chloride, 2 mM potassium chloride, 1.8 mM calcium chloride, 1 mM magnesium chloride, 0.01% bovine serum albumin, and 10 mM 2-[4-(2-hydroxyethyl)-1-piperazinyl]ethanesulfonic acid) were added by 90 μL to 75000 cells/well. After standing at ordinary temperature for 30 min or longer, the cells were subjected to a phenylalanine uptake experiment. A buffer containing L-phenylalanine and [3,4,5-3H]-L-phenylalanine was added by 10 μL per well (final concentration of phenylalanine 0.25 mM), and the radioactivity of the plate bottom surface at ordinary temperature was measured with a scintillation counter over time, and the radioactivity value after 100 to 200 min was analyzed.
With `CCC1c2ccc(CC(=O)O)cc2CCN1C(=O)CNC(=O)/C=C/c1ccc(C(F)(F)F)cc1` (stereo not drawn) [I-216], the 50% inhibitory concentration (IC50) amounted to 0.358 µM.

In the case of `O=C(O)CNc1ccc2c(c1)CN(C(=O)CNC(=O)/C=C/c1ccc(C(F)(F)F)cc1)CC2` [I-217], the IC50 was determined as 0.202 µM.

For `Cc1nn(CC(=O)O)c2c1CN(C(=O)CNC(=O)/C=C/c1ccc(C(F)(F)F)cc1)CC2` [I-219], the IC50 was 0.256 µM.

With `O=C(O)CCc1cc2c(s1)CN(C(=O)CNC(=O)/C=C/c1ccc(C(F)(F)F)cc1)CC2` [I-220], the IC50 amounted to 0.1 µM.

Take `O=C(O)Cc1cc2c(cc1Cl)CN(C(=O)CNC(=O)/C=C/c1ccc(C(F)(F)F)cc1F)CC2` [I-221]: the IC50 was found to be 0.071 µM.

Turning to `N#Cc1cc2c(cc1CC(=O)O)CCN(C(=O)CNC(=O)/C=C/c1ccc(I)cc1)C2` [I-222], the 50% inhibitory concentration (IC50) turned out to be 0.107 µM.

Regarding `CCC(F)(F)c1ccc(/C=C/C(=O)NCC(=O)N2CCc3cc(CC(=O)O)ccc3C2)cc1` [I-227], the IC50 was 0.667 µM.

Consider `O=C(O)CCCCc1ccc2c(c1)CCN(C(=O)CNC(=O)/C=C/c1ccc(C(F)(F)F)cc1)C2` [I-228], for which the IC50 was 0.462 µM.

Consider `O=C(/C=C/c1ccc(C(F)(F)F)cc1)NCC(=O)N1CCCC(C23CCC(C2)C3C(=O)O)C1` (stereo not drawn) [I-229], for which the IC50 worked out at 0.152 µM.

Take `Cc1cc2c(cc1CC(=O)O)CCN(C(=O)CNC(=O)/C=C/c1ccc(C(F)(F)F)cc1)C2` [I-230]: the IC50 came to 0.124 µM.

For the molecule `O=C(O)CCc1cccc2c1CCN2C(=O)CNC(=O)/C=C/c1ccc(C(F)(F)F)cc1F` [I-245], the IC50 is 0.045 µM.

For `O=C(O)CCc1cccc2c1CCN2C(=O)CNC(=O)/C=C/c1ccc(C(F)(F)F)cc1` [I-246], the IC50 is 0.044 µM.

For `O=C(/C=C/c1ccc(C(F)(F)F)cc1F)NCC(=O)N1CCN(Cc2ccc(C(=O)O)cc2)CC1c1ccc(Cl)cc1` (stereo not drawn) [I-251], the IC50 amounted to 0.366 µM.

Consider `C[C@H]1CN(CCCC(=O)O)C[C@H](c2ccccc2)N1C(=O)CNC(=O)/C=C/c1ccc(C(F)(F)F)cc1F` [I-370], for which the IC50 was found to be 0.143 µM.

Consider `C[C@@H]1CN(CCCC(=O)O)C[C@H](c2ccccc2)N1C(=O)CNC(=O)/C=C/c1ccc(C(F)(F)F)cc1F` [I-371], for which the IC50 came out at 3.38 µM.

Still in this assay, the particulars now being: Human BOAT1 stable expression CHO cells; phenylalanine uptake, phenylalanine 0.25 mM; read-out: hB0AT1 IC50.
As to `CC(C)(CCN1CCN(C(=O)CNC(=O)/C=C/c2ccc(C(F)(F)F)cc2F)C(c2ccc(Cl)cc2)C1)C(=O)O` (stereo not drawn) [I-254], the IC50 was 0.097 µM.

`O=C(O)CCCN1CCN(C(=O)CNC(=O)/C=C/c2ccc(C(F)(F)F)cc2F)C(c2cccc(C3CC3)c2)C1` (stereo not drawn) [I-256]: the IC50 is 0.048 µM.

On to `CN1CCN(C(=O)CNC(=O)/C=C/c2ccc(C(F)(F)F)cc2F)CC1c1cccc(C(=O)O)c1` (stereo not drawn) [I-258], for which the IC50 worked out at 1.33 µM.

Turning to `CC1(C)CN(C(=O)CNC(=O)/C=C/c2ccc(C(F)(F)F)cc2F)[C@@H](c2ccccc2)CN1CCCC(=O)O` [I-259], the IC50 worked out at 0.14 µM.

For the molecule `O=C(O)Cc1ccccc1C1=CCCN(C(=O)CNC(=O)/C=C/c2ccc(C(F)(F)F)cc2F)C1` [I-260], the half-maximal inhibitory concentration (IC50) amounted to 0.638 µM.

On to `O=C(O)CCCN1CCN(C(=O)CNC(=O)/C=C/c2ccc(C(F)(F)F)cc2F)C(c2cccc(C(F)(F)F)c2)C1` (stereo not drawn) [I-262], for which the IC50 turned out to be 0.125 µM.

`O=C(O)CCCN1CCN(C(=O)CNC(=O)/C=C/c2ccc(C(F)(F)F)cc2F)[C@@H](c2ccc(C3CC3)cc2)C1` [I-263]: the IC50 came out at 0.018 µM.

`NC(=O)Cc1ccc2c(c1)CCN(C(=O)CNC(=O)/C=C/c1ccc(C(F)(F)F)cc1)C2` [I-273, (E)-N-[2-[6-(2-amino-2-oxoethyl)-3,4-dihydro-1H-isoquinolin-2-yl]-2-oxoethyl]-3-[4-(trifluoromethyl)phenyl]prop-2-enamide]: the IC50 is 0.022 µM.

As for `O=C(/C=C/c1ccc(C(F)(F)F)cc1)NCC(=O)N1CCn2ncc(CCC(=O)N3CCCC3)c2C1` [I-274], the IC50 was 0.034 µM.

As to `CN(C)C(=O)CCc1cnn2c1CN(C(=O)CNC(=O)/C=C/c1ccc(C(F)(F)F)cc1)CC2` [I-275], the IC50 came to 0.078 µM.

With `NC(=O)Cc1cc(F)c2c(c1)CCN(C(=O)CNC(=O)/C=C/c1ccc(C(F)(F)F)cc1)C2` [I-276], the IC50 worked out at 0.017 µM.

With `CNC(=O)Cc1ccc2c(c1)CCN(C(=O)CNC(=O)/C=C/c1ccc(C(F)(F)F)cc1)C2` [I-277], the IC50 was determined as 0.03 µM.

For the molecule `NC(=O)Cc1ccc2c(c1)CN(C(=O)CNC(=O)/C=C/c1ccc(C(F)(F)F)cc1)CC2` [I-278], the IC50 came out at 0.04 µM.

For the molecule `CN(C)C(=O)Cc1cc(Cl)c2c(c1)CCN(C(=O)CNC(=O)/C=C/c1ccc(C(F)(F)F)cc1F)C2` [I-279], the IC50 was 0.021 µM.

Turning to `O=C(/C=C/c1ccc(C(F)(F)F)cc1F)NCC(=O)N1CCc2cc(CC(=O)NCCO)cc(Cl)c2C1` [I-280], the IC50 is 0.019 µM.

Take `CONC(=O)Cc1cc(Cl)c2c(c1)CCN(C(=O)CNC(=O)/C=C/c1ccc(C(F)(F)F)cc1F)C2` [I-281]: the IC50 was found to be 0.007 µM.

With `CNC(=O)Cn1cc2c(n1)CN(C(=O)CNC(=O)/C=C/c1ccc(C(F)(F)F)cc1)CC2` [I-282], the IC50 is 0.7 µM.

On to `CNC(=O)Cn1ncc2c1CN(C(=O)CNC(=O)/C=C/c1ccc(C(F)(F)F)cc1)CC2` [I-283], for which the half-inhibitory concentration (IC50) is 0.256 µM.

As for `CNC(=O)Cc1nc2c(s1)CN(C(=O)CNC(=O)/C=C/c1ccc(C(F)(F)F)cc1F)CC2` [I-284], the concentration for half-maximal inhibition (IC50) is 0.025 µM.

As to `C[C@@H]1CN(C(=O)CNC(=O)/C=C/c2ccc(C(F)(F)F)cc2F)[C@@H](c2ccccc2)CN1CC#CC(=O)O` [I-320], the IC50 was 0.352 µM.

Turning to `CNC(=O)Cc1cc(CC(=O)O)cc2c1CN(C(=O)CNC(=O)/C=C/c1ccc(C(F)(F)F)cc1F)CC2` [I-336], the IC50 is 0.661 µM.

Turning to `C[C@@H]1CN(C(=O)CNC(=O)/C=C/c2ccc(C(F)(F)F)cc2F)[C@@H](c2ccccc2)CN1CCC(C)(C)C(=O)O` [I-344], the IC50 is 0.122 µM.

As to `CC(CCN1C[C@H](c2ccccc2)N(C(=O)CNC(=O)/C=C/c2ccc(C(F)(F)F)cc2F)C[C@H]1C)C(=O)O` (stereo partly drawn) [I-345], the IC50 amounted to 1.78 µM.

On to `C[C@@H]1CN(C(=O)CNC(=O)/C=C/c2ccc(C(F)(F)F)cc2F)[C@@H](c2ccccc2)CN1CC(C)(C)C(=O)O` [I-346], for which the IC50 stood at 1.04 µM.

In the case of `CC(CN1C[C@H](c2ccccc2)N(C(=O)CNC(=O)/C=C/c2ccc(C(F)(F)F)cc2F)C[C@H]1C)C(=O)O` (stereo partly drawn) [I-347], the IC50 worked out at 2.69 µM.

`C[C@H]1[C@H](c2ccccc2)N(C(=O)CNC(=O)/C=C/c2ccc(C(F)(F)F)cc2F)CCN1CCCC(=O)O` [I-352]: the IC50 came to 3.26 µM.

As to `C[C@@H]1CN(C(=O)CNC(=O)/C=C/c2ccc(C(F)(F)F)cc2F)[C@@H](c2cccs2)CN1CCCC(=O)O` [I-357], the IC50 amounted to 0.107 µM.

As for `CN1CCN(C(=O)CNC(=O)/C=C/c2ccc(C(F)(F)F)cc2F)CC1c1cccc(CC(=O)O)c1` (stereo not drawn) [I-358], the 50% inhibitory concentration (IC50) stood at 0.223 µM.

For the molecule `O=C(/C=C/c1ccc(C(F)(F)F)cc1F)NCC(=O)N1CCCC(N2CC[C@@H](C(=O)O)C2)C1` (stereo partly drawn) [I-359], the IC50 was determined as 1.11 µM.

Turning to `O=C(/C=C/c1ccc(C(F)(F)F)cc1F)NCC(=O)N1CCCC(N2CC[C@H](C(=O)O)C2)C1` (stereo partly drawn) [I-360], the IC50 amounted to 2.86 µM.

Regarding `O=C(O)C[C@H]1CCN(C2CCCN(C(=O)CNC(=O)/C=C/c3ccc(C(F)(F)F)cc3F)C2)C1` (stereo partly drawn) [I-361], the IC50 came to 0.879 µM.

With `O=C(O)C[C@@H]1CCN(C2CCCN(C(=O)CNC(=O)/C=C/c3ccc(C(F)(F)F)cc3F)C2)C1` (stereo partly drawn) [I-362], the IC50 came out at 1.4 µM.

In the case of `O=C(O)CCCN1CCN(C(=O)CNC(=O)/C=C/c2ccc(C(F)(F)F)cc2F)C(C2CCCCC2)C1` (stereo not drawn) [I-365], the IC50 came to 0.069 µM.
